Test results taken from patent publication US6534491B2, “Preparation and use of ortho-sulfonamido bicyclic heteroaryl hydroxamic acids as matrix metalloproteinase and tace inhibitors” (priority 1996, dated 2003).
Counter-ions that a name gives are not always drawn.

Experiments:
[1] = target: MMP-9 (Homo sapiens, UniProt P14780); assay: MMP-9 inhibition (thiopeptide or fluorescent peptide substrate); assay type: biochemical; details: for IC50: read-out: MMP-9 IC50; for inhibition at 1 µM: read-out: MMP-9 % inhibition, at 1 μM concentration
MMP-9, sequence (P14780 94-707): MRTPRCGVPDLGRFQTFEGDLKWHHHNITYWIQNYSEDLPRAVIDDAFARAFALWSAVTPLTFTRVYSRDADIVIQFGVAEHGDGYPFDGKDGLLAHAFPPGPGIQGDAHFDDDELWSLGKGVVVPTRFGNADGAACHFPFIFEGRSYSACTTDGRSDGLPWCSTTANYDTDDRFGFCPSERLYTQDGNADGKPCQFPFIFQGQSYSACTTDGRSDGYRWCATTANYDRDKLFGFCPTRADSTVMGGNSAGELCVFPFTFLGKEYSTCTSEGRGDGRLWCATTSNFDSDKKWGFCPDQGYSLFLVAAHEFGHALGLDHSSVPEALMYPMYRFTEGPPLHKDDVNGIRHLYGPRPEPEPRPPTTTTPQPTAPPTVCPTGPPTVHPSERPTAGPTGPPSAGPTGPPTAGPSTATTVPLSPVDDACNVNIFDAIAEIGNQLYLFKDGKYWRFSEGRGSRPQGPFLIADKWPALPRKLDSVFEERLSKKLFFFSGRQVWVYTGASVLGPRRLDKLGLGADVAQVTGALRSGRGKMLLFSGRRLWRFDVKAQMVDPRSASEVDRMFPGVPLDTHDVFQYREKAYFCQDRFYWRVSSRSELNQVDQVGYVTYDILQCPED
Experimental: (§1) The enzyme activity is measured by the rate of the color increase. The thiopeptide substrate is made up fresh as a 20 mM stock in 100% DMSO and the DTNB is dissolved in 100% DMSO as a 100 mM stock and stored in the dark at room temperature. Both the substrate and DTNB are diluted together to 1 mM with substrate buffer (50 mM HEPES pH 7.5, 5 mM CaCl2) before use. The stock of enzyme is diluted with buffer (50 mM HEPES, pH 7.5, 5 mM CaCl2, 0.02% Brij) to the desired final concentration.
(§2) Alternatively, a fluorescent peptide substrate is used. In this test procedure, the peptide substrate contains a fluorescent group and a quenching group. Upon cleavage of the substrate by an MMP, the fluorescence that is generated is quantitated on the fluorescence plate reader. The assay is run in HCBC assay buffer (50 mM HEPES, pH 7.0, 5 mM Ca^+2, 0.02% Brij, 0.5% Cysteine), with human recombinant MMP-1, MMP-9, or MMP-13. The substrate is dissolved in methanol and stored frozen in 1 mM aliquots. For the assay, substrate and enzymes are diluted in HCBC buffer to the desired concentrations. Compounds are added to the 96 well plate containing enzyme and the reaction is started by the addition of substrate.
(§3) For either the thiopeptide or fluorescent peptide test procedures, the slope of the line is calculated and represents the reaction rate. The linearity of the reaction rate is confirmed (r^2>0.85). The mean (x±sem) of the control rate is calculated and compared for statistical significance (p<0.05) with drug-treated rates using Dunnett's multiple comparison test.

[2] = target: T1, MMP-13 (Homo sapiens, UniProt P45452); assay: MMP-13 inhibition (thiopeptide or fluorescent peptide substrate); assay type: biochemical; details: for inhibition at 1 µM: read-out: MMP-13 % inhibition, at 1 μM concentration
Experimental: as §1, §2, §3

[3] = target: TACE (Homo sapiens, UniProt P78536); assay: TACE inhibition (fluorescent peptidyl substrate); assay type: biochemical; details: for inhibition at 1 µM: at 1 μM concentration, read-out: TACE % inhibition
TACE, sequence (P78536 215-824): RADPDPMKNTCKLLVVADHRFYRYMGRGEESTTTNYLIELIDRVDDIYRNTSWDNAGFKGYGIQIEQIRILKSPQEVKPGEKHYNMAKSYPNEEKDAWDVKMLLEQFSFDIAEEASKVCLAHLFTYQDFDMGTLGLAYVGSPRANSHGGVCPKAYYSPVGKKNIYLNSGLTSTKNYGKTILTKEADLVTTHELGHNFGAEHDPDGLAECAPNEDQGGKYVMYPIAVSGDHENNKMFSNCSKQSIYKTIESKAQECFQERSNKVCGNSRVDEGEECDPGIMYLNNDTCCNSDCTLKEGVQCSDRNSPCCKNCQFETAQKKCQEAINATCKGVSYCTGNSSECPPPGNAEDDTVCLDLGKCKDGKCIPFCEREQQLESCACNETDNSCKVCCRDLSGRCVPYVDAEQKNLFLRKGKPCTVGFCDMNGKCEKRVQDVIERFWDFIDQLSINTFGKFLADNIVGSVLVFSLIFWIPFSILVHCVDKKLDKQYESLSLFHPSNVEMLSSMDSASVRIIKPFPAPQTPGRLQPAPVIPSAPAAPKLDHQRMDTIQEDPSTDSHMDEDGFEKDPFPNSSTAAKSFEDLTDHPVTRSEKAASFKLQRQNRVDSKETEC
Experimental: Using 96-well black microtiter plates, each well receives a solution composed of 10 μL TACE (final concentration 1 μg/mL), 70 μL Tris buffer, pH 7.4 containing 10% glycerol (final concentration 10 mM), and 10 μL of test compound solution in DMSO (final concentration 1 μl M, DMSO concentration <1%) and incubated for 10 minutes at room temperature.
The reaction is read (excitation 340 nm, emission 420 nm) for 10 min. and the increase in fluorescence over time is plotted as a linear line. The slope of the line is calculated and represents the reaction rate.
The linearity of the reaction rate is confirmed (r^2>0.85). The mean (x±sem) of the control rate is calculated and compared for statistical significance (p<0.05) with drug-treated rates using Dunnett's multiple comparison test.

[4] = target: T2, MMP-1 (Homo sapiens, UniProt P03956); assay: biochemical; details: for IC50: MMP-1 IC50; for inhibition at 1 µM: read-out: MMP-1 % inhibition
T2 sequence (P03956 100-469): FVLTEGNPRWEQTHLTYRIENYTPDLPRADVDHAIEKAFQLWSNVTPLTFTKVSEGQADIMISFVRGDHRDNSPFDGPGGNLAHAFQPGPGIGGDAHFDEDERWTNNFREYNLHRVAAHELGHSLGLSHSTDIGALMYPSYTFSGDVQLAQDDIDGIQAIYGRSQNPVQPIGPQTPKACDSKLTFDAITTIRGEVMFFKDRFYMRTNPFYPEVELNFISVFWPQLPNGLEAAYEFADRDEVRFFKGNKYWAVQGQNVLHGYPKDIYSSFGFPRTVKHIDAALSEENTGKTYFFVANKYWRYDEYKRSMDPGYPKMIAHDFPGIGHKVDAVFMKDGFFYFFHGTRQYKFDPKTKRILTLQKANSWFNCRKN

[5] = target: T1, MMP-13; assay: In vivo MMP inhibition test procedure (implanted dialysis tubing containing enzyme); parameters: species or system rat or mouse; details: p.o. vs MMP-13
Experimental: A 2 cm piece of dialysis tubing (molecular weight cut-off 12-14,000, 10 mm flat width) containing matrix metalloproteinase enzyme (stromelysin, collagenase or gelatinase in 0.5 mL of buffer) is implanted either ip or sc (in the back) of a rat (Sprague-Dawley, 150-200 g) or mouse (CD-1, 25-50 g) under anesthesia. Drugs are administered PO, IP, SC or IV through a canula in the jugular vein. […] Contents of the dialysis tubing is collected and enzyme activity assayed.
Enzyme reaction rates for each dialysis tube are calculated. Tubes from at least 3 different animals are used to calculate the mean±sem. Statistical significance (p<0.05) of vehicle-treated animals versus drug-treated animals is determined by analysis of variance.

Molecule	IC50 [1]	IC50 [2]	IC50 [3]	IC50 [4]	inhibition at 1 µM [3]	in-vivo MMP % inhibition ([5]; dose 25 mg/kg)	inhibition at 1 µM [1]	inhibition at 1 µM [2]	inhibition at 1 µM [4]	in-vivo MMP % inhibition ([5]; dose 100 mg/kg)	in-vivo MMP % inhibition ([5]; dose 50 mg/kg)
COc1ccc(S(=O)(=O)N(Cc2ccccc2)c2c(C(=O)NO)cnc3ccc([N+](=O)[O-])cc23)cc1 [Example 30, 4-[Benzyl-(4-methoxy-benzenesulfonyl)-amino]-6-nitro-quinoline-3-carboxylic acid hydroxyamide]	0.011 µM	0.467 µM	0.047 µM	0.022 µM							
COc1ccc(S(=O)(=O)N(Cc2ccccc2)c2c(C(=O)NO)cnc3c(C(C)C)cccc23)cc1 [Example 20, 4-[Benzyl-(4-methoxybenzenesulfonyl)-amino]-8-(1-methylethyl)-quinoline-3-carboxylic acid hydroxyamide]	0.006 µM	0.009 µM	0.589 µM	0.344 µM							
COc1ccc(S(=O)(=O)N(Cc2ccccc2)c2c(C(=O)NO)cnc3c2cnn3-c2ccccc2)cc1 [Example 62, 4-[Benzyl-(4-methoxybenzenesulfonyl)amino]-1-phenyl-1H-pyrazolo[3,4-b]pyridine-5-carboxylic acid, hydroxyamide]	0.0057 µM	0.023 µM		1.24 µM	46%						
COc1ccc(S(=O)(=O)N(Cc2cccnc2)c2c(C(=O)NO)cnc3c(-c4ccccc4)cccc23)cc1 [Example 40, 4-[(4-Methoxy-benzenesulfonyl)-pyridin-3-ylmethyl-amino]-8-phenyl-quinoline-3-carboxylic acid hydroxyamide]	0.003 µM	0.004 µM	0.12 µM	0.151 µM							
COc1ccc(S(=O)(=O)N(Cc2cccnc2)c2c(C(=O)NO)cnc3c2cnn3-c2ccccc2)cc1 [Example 64, 4-[(4-Methoxybenzenesulfonyl)pyridin-3-ylmethylamino]-1-phenyl-1H-pyrazolo[3,4-b]pyridine-5-carboxylic acid, hydroxyamide, hydrochloride]	0.0055 µM	0.019 µM		0.913 µM							
COc1ccc(S(=O)(=O)N(Cc2ccccc2)c2c(C(=O)NO)cnc3c2c(C)nn3-c2ccccc2)cc1 [Example 66, 4-[Benzyl-(4-methoxybenzenesulfonyl)amino]-1-phenyl-3-methyl-1H-pyrazolo[3,4b]pyridine-5-carboxylic acid, hydroxyamide]	0.00081 µM	0.00027 µM		0.512 µM		5% (25)					
4-{[4-(4-Chlorophenyloxy)benzenesulfonyl]methylamino}-3-methylisothiazolo[5,4-b]pyridine-5-carboxylic Acid Hydroxyamide [Example 90]						39% (25)					
Cc1ccc(S(=O)(=O)N(Cc2cccnc2)c2c(C(=O)NO)cnc3cc(C(F)(F)F)ccc23)cc1 [Example 44, 4-[Pyridin-3-ylmethyl-(toluene-4-sulfonyl)-amino]-7-trifluoromethyl-quinoline-3-carboxylic acid hydroxyamide]					5%		59%	73%	65%		
CN(c1c(C(=O)NO)cnc2c1c(-c1ccccc1)nn2C)S(=O)(=O)c1ccc(Oc2ccncc2)cc1 [Example 93, 4-{Methyl-[4-(4-pyridinyloxy)benzenesulfonyl]amino}-1-methyl-3-phenyl-1H-pyrazolo[3,4-b]pyridine-5-carboxylic acid, Hydroxyamide]	0.0101 µM	0.0039 µM		8.79 µM	34.9%	49% (25)					
COc1ccc(S(=O)(=O)N(Cc2cccnc2)c2c(C(=O)NO)cnc3cc(C)nn23)cc1 [Example 88, 7-[(4-Methoxybenzenesulfonyl)pyridin-3-ylmethylamino]-2-methylpyrazolo[1,5-a]pyrimidine-6-carboxylic Acid, Hydroxyamide]	0.0104 µM	0.0187 µM		0.643 µM	40.5%						
COc1ccc(S(=O)(=O)N(Cc2cccnc2)c2c(C(=O)NO)cnc3cc(C(F)(F)F)ccc23)cc1 [Example 16, 4-[(4-Methoxybenzenesulfonyl)-pyridin-3-ylmethylamino]-7-trifluoromethyl-quinoline-3-carboxylic acid hydroxyamide]	0.006 µM	0.003 µM			36%					64% (100)	
COc1ccc(S(=O)(=O)N(Cc2cccnc2)c2c(C(=O)NO)cnc3c(Cc4ccccc4)cccc23)cc1 [Example 38, 4-[(4-methoxy-benzenesulfonyl)-pyridin-3-ylmethylamino]-8-Benzyl-quinoline-3-carboxylic acid hydroxyamide]	0.004 µM	0.003 µM	0.336 µM	0.1 µM							
C=Cc1cccc2c(N(CC)S(=O)(=O)c3ccc(OC)cc3)c(C(=O)NO)cnc12 [Example 29, 4-[Ethyl-(4-methoxy-benzenesulfonyl)-amino]-8-vinyl-quinoline-3-carboxylic acid hydroxyamide]	0.005 µM	0.004 µM		0.2 µM							
COc1ccc(S(=O)(=O)N(Cc2ccccc2)c2c(C(=O)NO)cnc3ccc(Br)cc23)cc1 [Example 13, 4-[Benzyl-(4-methoxy-benzenesulfonyl)-amino]-6-bromo-quinoline-3-carboxylic acid hydroxyamide]	0.015 µM	0.009 µM		0.082 µM	3%						
COc1ccc(S(=O)(=O)N(C)c2c(C(=O)NO)cnc3c(Br)cccc23)cc1 [Example 31, 4-[Methyl-(4-methoxy-benzenesulfonyl)-amino]-8-bromo-quinoline-3-carboxylic acid hydroxyamide]		0.002 µM	0.08 µM	0.225 µM							
COc1ccc(S(=O)(=O)N(Cc2cccnc2)c2c(C(=O)NO)cnc3onc(C)c23)cc1 [Example 87, 4-[(4-Methoxybenzenesulfonyl)pyridin-3-ylmethylamino]-3-methylisoxazolo[5,4-b]pyridine-5-carboxylic Acid, Hydroxyamide]	0.0089 µM	0.01 µM	0.147 ± 0.005 µM	0.111 µM							
CN(c1c(C(=O)NO)cnc2ccc(I)cc12)S(=O)(=O)c1ccc(Oc2ccncc2)cc1 [Example 32, 4-{Methyl-[4-(pyridin-4-yloxy)-benzenesulfonyl]-amino}-6-iodo-quinoline-3-carboxylic acid hydroxyamide]	0.001 µM	0.001 µM	0.024 µM	0.456 µM							
COc1ccc(S(=O)(=O)N(Cc2cccnc2)c2c(C(=O)NO)cnc3c(OC)cccc23)cc1 [Example 36, 4-[(4-Methoxy-benzenesulfonyl)-pyridin-3-ylmethyl-amino]-8-methoxy-quinoline-3-carboxylic acid hydroxyamide]	0.002 µM	0.001 µM	0.226 µM								81% (50)
COc1ccc(S(=O)(=O)N(Cc2ccccc2)c2c(C(=O)NO)cnc3c(C(F)(F)F)cccc23)cc1 [Example 12, 4-[Benzyl-(4-methoxy-benzenesulfonyl)-amino]-8-trifluoromethyl-quinoline-3-carboxylic acid hydroxyamide]	0.002 µM	0.001 µM	0.19 µM	0.933 µM							
CCCCCCCCS(=O)(=O)N(Cc1cccnc1)c1c(C(=O)NO)cnc2cc(C(F)(F)F)ccc12 [Example 43, 4-[(Octane-1-sulfonyl)-pyridin-3-ylmethyl-amino]-7-trifluoromethyl-quinoline-3-carboxylic acid hydroxyamide]					20%		71%	63%	43%		
COc1ccc(S(=O)(=O)N(Cc2ccccc2)c2c(C(=O)NO)cnc3c2c(C)nn3C)cc1 [Example 52, 4-[Benzyl-(4-methoxybenzenesulfonyl)amino]-1,3-dimethyl-1H-pyrazolo[3,4-b]pyridine-5-carboxylic acid, hydroxyamide]	0.0024 µM	0.0014 µM	0.236 µM	0.045 µM						74% (100)	
CCN(c1c(C(=O)NO)cnc2ccc(C#Cc3ccccc3)cc12)S(=O)(=O)c1ccc(OC)cc1 [Example 34, 4-[Ethyl-(4-methoxy-benzenesulfonyl)-amino]-6-phenylethynyl-quinoline-3-carboxylic acid hydroxyamide]	0.009 µM	0.012 µM	0.02 µM	0.301 µM							
Cc1noc2ncc(C(=O)NO)c(N(C)S(=O)(=O)c3ccc(Oc4ccncc4)cc3)c12 [Example 94, 4-{Methyl-[4-(4-pyridinyloxy)benzenesulfonyl]amino}-3-methylisoxazolo[5,4-b]pyridine-5-carboxylic acid, Hydroxyamide,]	0.003 µM	0.0032 µM		2.55 µM	41.6%	12% (25)					
COc1ccc(S(=O)(=O)N(Cc2cccnc2)c2c(C(=O)NO)cnc3c(Br)cccc23)cc1 [Example 37, 4-[(4-Methoxy-benzenesulfonyl)-pyridin-3-ylmethyl-amino]-8-bromo-quinoline-3-carboxylic acid hydroxyamide]	0.002 µM	0.001 µM	0.124 µM	0.065 µM							
